Experimental data from patent US6964760B2, “Antimicrobial polypeptide, nucleic acid, and methods of use” (University of Florida Research Foundation, priority 1997, dated 2005).

Legend:
Assay type in all cases: cell-based
Gram-negative bacteria = experiment: Overlay technique, Gram-negative bacteria
Description: (§1) Three drops of an overnight THB culture of the indicator strain were mixed with 3 ml of molten top agar and poured evenly over the surface of the plate. After an additional 24 hours of incubation, clear zones surrounding the test strain were measured.
(§2) The inhibitory factor inhibited 124 of 125 S. mutans strains tested. […] The following table summarizes the spectrum of activity found for the lantibiotic.

S. mutans strains = experiment: Overlay technique, panel of S. mutans strains; conditions: mutacin 1140 produced by a JH1140 strain
Description: as §1, §2

Gram positive organisms = experiment: Overlay technique, Gram positive organisms; conditions: including Streptococcus mitts, Streptococcus pyogenes, Staphylococcus aureus, Actinomyces species
Description: as §1, §2

[1] = test system: other strains of S. mutans; experiment: Sterility of agar taken from clear zones; conditions: loopfuls of agar taken from clear zones were sterile

Substance: mutacin 1140
- Inhibition of Gram-negative bacteria (Gram-negative bacteria): mostly resistant
- S. mutans strains inhibited of strains tested (S. mutans strains): 124 of 125
- Sensitivity of most Gram positive organisms to inhibitory activity (Gram positive organisms): sensitive
- Kind of effect on other strains of S. mutans [1]: bacteriocidal
